According to patent US10238670B2, “9-aminomethyl minocycline compounds and methods of use thereof in urinary tract infection (UTI) treatment” (Paratek Pharmaceuticals, Inc., priority 2016, dated 2019):

Key:
Test in all cases: In vitro MIC, 2010 surveillance isolates
K. pneumoniae ESBL+ = format: cell-based, Klebsiella pneumoniae
K. oxytoca = format: cell-based
Enterobacter spp = format: cell-based
MSSA = format: cell-based
E. cloacae CeftazS = format: cell-based
K. pneumoniae ESBL− = format: cell-based, Klebsiella pneumoniae
A. baumanii = format: cell-based
E. coli ESBL+ = format: cell-based, Escherichia coli
E. coli ESBL− = format: cell-based, Escherichia coli
MR CoNS = format: cell-based, Coagulase-Negative Staphylococcus
MRSA = format: cell-based
E. cloacae CeftazR = format: cell-based
MS CoNS = format: cell-based, Coagulase-Negative Staphylococcus
Acinetobacter spp = format: cell-based

Gentamicin
% R (resistance) (K. pneumoniae ESBL+; Asia/Pac, Eucast breakpoints): 58.1%
MIC90 (K. pneumoniae ESBL+; Asia/Pac, N=124): > 8 µg/mL
% R (resistance) (K. pneumoniae ESBL+; Europe, Eucast breakpoints): 58.3%
MIC90 (K. pneumoniae ESBL+; Europe, N=151): > 8 µg/mL
% R (resistance) (K. pneumoniae ESBL+; L. Amer, CLSI breakpoints): 56.9%
MIC90 (K. pneumoniae ESBL+; L. Amer, N=209): > 8 µg/mL
% R (resistance) (K. pneumoniae ESBL+; N America, CLSI breakpoints): 46.3%
MIC90 (K. pneumoniae ESBL+; N America, N=108): > 8 µg/mL
% R (resistance) (K. oxytoca; Asia/Pac, Eucast breakpoints): 17.6%
MIC90 (K. oxytoca; Asia/Pac, N=17): > 8 µg/mL
% R (resistance) (K. oxytoca; Europe, Eucast breakpoints): 8.2%
MIC90 (K. oxytoca; Europe, N=158): ≤ 1 µg/mL
% R (resistance) (K. oxytoca; L. Amer, CLSI breakpoints): 12%
MIC90 (K. oxytoca; L. Amer, N=25): > 8 µg/mL
% R (resistance) (K. oxytoca; N America, CLSI breakpoints): 2.3%
MIC90 (K. oxytoca; N America, N=177): ≤ 1 µg/mL
% R (resistance) (Enterobacter spp; Asia/Pac, Eucast breakpoints): 7.7%
MIC90 (Enterobacter spp; Asia/Pac, N=52): ≤ 1 µg/mL
% R (resistance) (Enterobacter spp; Europe, Eucast breakpoints): 4.9%
MIC90 (Enterobacter spp; Europe, N=82): ≤ 1 µg/mL
% R (resistance) (Enterobacter spp; L. Amer, CLSI breakpoints): 9.5%
MIC90 (Enterobacter spp; L. Amer, N=42): 2 µg/mL
MIC90 (Enterobacter spp; N America, N=101): ≤1 (1)
% R (resistance) (MSSA; Asia/Pac, Eucast breakpoints): 8.4%
MIC90 (MSSA; Asia/Pac, N=641): ≤ 1 µg/mL
% R (resistance) (MSSA; Europe, Eucast breakpoints): 2.7%
MIC90 (MSSA; Europe, N=2109): ≤ 1 µg/mL
% R (resistance) (MSSA; L. Amer, CLSI breakpoints): 1.9%
MIC90 (MSSA; L. Amer, N=590): ≤ 1 µg/mL
% R (resistance) (MSSA; N America, CLSI breakpoints): 0.7%
MIC90 (MSSA; N America, N=2373): ≤ 1 µg/mL
% R (resistance) (E. cloacae CeftazS; Asia/Pac, Eucast breakpoints): 6%
MIC90 (E. cloacae CeftazS; Asia/Pac, N=100): ≤ 1 µg/mL
% R (resistance) (E. cloacae CeftazS; Europe, Eucast breakpoints): 1.1%
MIC90 (E. cloacae CeftazS; Europe, N=183): ≤ 1 µg/mL
% R (resistance) (E. cloacae CeftazS; L. Amer, CLSI breakpoints): 12.3%
MIC90 (E. cloacae CeftazS; L. Amer, N=57): > 8 µg/mL
% R (resistance) (E. cloacae CeftazS; N America, CLSI breakpoints): 0%
MIC90 (E. cloacae CeftazS; N America, N=210): ≤ 1 µg/mL
% R (resistance) (K. pneumoniae ESBL−; Asia/Pac, Eucast breakpoints): 3.7%
MIC90 (K. pneumoniae ESBL−; Asia/Pac, N=189): ≤ 1 µg/mL
% R (resistance) (K. pneumoniae ESBL−; Europe, Eucast breakpoints): 2.2%
MIC90 (K. pneumoniae ESBL−; Europe, N=361): ≤ 1 µg/mL
% R (resistance) (K. pneumoniae ESBL−; L. Amer, CLSI breakpoints): 1.3%
MIC90 (K. pneumoniae ESBL−; L. Amer, N=160): ≤ 1 µg/mL
% R (resistance) (K. pneumoniae ESBL−; N America, CLSI breakpoints): 1.2%
MIC90 (K. pneumoniae ESBL−; N America, N=671): ≤ 1 µg/mL
% R (resistance) (A. baumanii; Asia/Pac, Eucast breakpoints): 80%
MIC90 (A. baumanii; Asia/Pac, N=275): > 8 µg/mL
% R (resistance) (A. baumanii; Europe, Eucast breakpoints): 61.4%
MIC90 (A. baumanii; Europe, N=145): > 8 µg/mL
% R (resistance) (A. baumanii; L. Amer, CLSI breakpoints): 52.4%
MIC90 (A. baumanii; L. Amer, N=275): > 8 µg/mL
% R (resistance) (A. baumanii; N America, CLSI breakpoints): 57.8%
MIC90 (A. baumanii; N America, N=154): > 8 µg/mL
% R (resistance) (E. coli ESBL+; Asia/Pac, Eucast breakpoints): 58.9%
MIC90 (E. coli ESBL+; Asia/Pac, N=219): > 8 µg/mL
% R (resistance) (E. coli ESBL+; Europe, Eucast breakpoints): 40.5%
MIC90 (E. coli ESBL+; Europe, N=274): > 8 µg/mL
% R (resistance) (E. coli ESBL+; L. Amer, CLSI breakpoints): 39.3%
MIC90 (E. coli ESBL+; L. Amer, N=168): > 8 µg/mL
% R (resistance) (E. coli ESBL+; N America, CLSI breakpoints): 26.1%
MIC90 (E. coli ESBL+; N America, N=134): > 8 µg/mL
% R (resistance) (E. coli ESBL−; Asia/Pac, Eucast breakpoints): 16.3%
MIC90 (E. coli ESBL−; Asia/Pac, N=282): > 8 µg/mL
% R (resistance) (E. coli ESBL−; Europe, Eucast breakpoints): 7.4%
MIC90 (E. coli ESBL−; Europe, N=1533): 2 µg/mL
% R (resistance) (E. coli ESBL−; L. Amer, CLSI breakpoints): 9%
MIC90 (E. coli ESBL−; L. Amer, N=389): 2 µg/mL
% R (resistance) (E. coli ESBL−; N America, CLSI breakpoints): 7.7%
MIC90 (E. coli ESBL−; N America, N=1172): 2 µg/mL
% R (resistance) (MR CoNS; Asia/Pac, Eucast breakpoints): 72.7%
MIC90 (MR CoNS; Asia/Pac, N=77): > 8 µg/mL
% R (resistance) (MR CoNS; Europe, Eucast breakpoints): 56.2%
MIC90 (MR CoNS; Europe, N=510): > 8 µg/mL
% R (resistance) (MR CoNS; L. Amer, CLSI breakpoints): 33.2%
MIC90 (MR CoNS; L. Amer, N=301): > 8 µg/mL
% R (resistance) (MR CoNS; N America, CLSI breakpoints): 22.6%
MIC90 (MR CoNS; N America, N=461): > 8 µg/mL
% R (resistance) (MRSA; Asia/Pac, Eucast breakpoints): 58.6%
MIC90 (MRSA; Asia/Pac, N=428): > 8 µg/mL
% R (resistance) (MRSA; Europe, Eucast breakpoints): 23.1%
MIC90 (MRSA; Europe, N=750): > 8 µg/mL
% R (resistance) (MRSA; L. Amer, CLSI breakpoints): 35.4%
MIC90 (MRSA; L. Amer, N=506): > 8 µg/mL
% R (resistance) (MRSA; N America, CLSI breakpoints): 3.7%
MIC90 (MRSA; N America, N=2508): ≤ 1 µg/mL
% R (resistance) (E. cloacae CeftazR; Asia/Pac, Eucast breakpoints): 39.7%
MIC90 (E. cloacae CeftazR; Asia/Pac, N=63): > 8 µg/mL
% R (resistance) (E. cloacae CeftazR; Europe, Eucast breakpoints): 43.1%
MIC90 (E. cloacae CeftazR; Europe, N=72): > 8 µg/mL
% R (resistance) (E. cloacae CeftazR; L. Amer, CLSI breakpoints): 38.1%
MIC90 (E. cloacae CeftazR; L. Amer, N=42): > 8 µg/mL
% R (resistance) (E. cloacae CeftazR; N America, CLSI breakpoints): 20.8%
MIC90 (E. cloacae CeftazR; N America, N=77): > 8 µg/mL
% R (resistance) (MS CoNS; Asia/Pac, Eucast breakpoints): 33.3%
MIC90 (MS CoNS; Asia/Pac, N=18): 4 µg/mL
% R (resistance) (MS CoNS; Europe, Eucast breakpoints): 9.7%
MIC90 (MS CoNS; Europe, N=185): ≤ 1 µg/mL
% R (resistance) (MS CoNS; L. Amer, CLSI breakpoints): 7.5%
MIC90 (MS CoNS; L. Amer, N=67): 8 µg/mL
% R (resistance) (MS CoNS; N America, CLSI breakpoints): 2.1%
MIC90 (MS CoNS; N America, N=191): ≤ 1 µg/mL
% R (resistance) (Acinetobacter spp; Asia/Pac, Eucast breakpoints): 33.3%
% R (resistance) (Acinetobacter spp; Europe, Eucast breakpoints): 32.6%
MIC90 (Acinetobacter spp; Europe, N=43): > 8 µg/mL
% R (resistance) (Acinetobacter spp; L. Amer, CLSI breakpoints): 22.2%
% R (resistance) (Acinetobacter spp; N America, CLSI breakpoints): 14.3%
MIC90 (Acinetobacter spp; N America, N=42): > 8 µg/mL
